Reference: patent US12319752B2, “Heparin-binding cationic peptide self-assembling peptide amphiphiles useful against drug-resistant bacteria” (priority 2016, dated 2025)
Residues, ends and D or L forms follow the SMILES beside them. *: point of attachment. Palmitoyl = CCCCCCCCCCCCCCCC(=O)*

Tests used:
[1] = test system: LPS (from Escherichia coli O111:B4); assay: LPS binding, BODIPY TR cadaverine (BC) probe displacement assay; details: 20 μM to 100 μM peptide, 100 μg/mL LPS
Experimental: The binding of each peptide at various concentrations to LPS was determined by the capability of displacing the BC probes bound with LPS. The fluorescent BC probe was used as a probe to determine the level of peptide bound with LPS. BC probe binds to native LPS and particularly target the lipid A portion. The fluorescent intensity of BC probe decreases as it binds to LPS. […] For instance, the LPS binding factor of samples containing 60 μM of CVK-PA was as double as the 40 μM sample.
The LPS binding affinity of peptide was examined with the BODIPY TR cadaverine (BC) fluorescent probe displacement assay as previously described. Stock solution of each peptide was diluted to predetermined concentrations with 10 mM HEPES buffer (pH=7.5, Thermo Fisher Scientific, Waltham, MA, USA). […] Followed by incubation for 15 minutes in room temperature, the fluorescent intensity was measured using a spectrophotometer at an excitation wavelength of 580 nm and an emission wavelength of 620 nm. Finally, the LPS binding factor of each sample was calculated using the equation: […]
When peptides bind to LPS and displace the BC probe, fluorescence intensity of the probe is increased. LPS binding affinity of each peptide was then analyzed by the fluorescent intensity of the displaced BC probe. […]

MRSA = assay: Viable colony count assay (bactericidal effect, 4 h); type: cell-based, methicillin-resistant S. aureus (MRSA, ATCC #43300)
Experimental: The bactericidal effects of the peptides were examined using a viable colony count assay as well as the live/dead staining assay. For the viable colony count assay, bacteria were treated with peptides for 4 h and the resulting viable bacterial density of each sample was expressed by log10[CFU/mL]. For the Gram-positive bacteria tested, the decrease in bacterial density was dependent on the concentration of the ACA-PA (FIG. 8A). […] As for Gram-negative E. coli and MDR E. coli bacteria (FIG. 8B), the ACA nanorods, wherein the PA were added at a concentration above their CMC, had potent bactericidal effects. For example, the ACA nanorods at concentrations over 60 μM reduced the colony forming units of Gram-negative bacteria by about a five log unit reduction after 4 h compared with the untreated negative control sample.
In addition, ACA-PA were mixed with heparin at various weight ratios (1:1, 1:2, and 1:3 ACA-PA to heparin ratios) to block the Cardin motif groups on the PA. The ACA-PA concentration used to treat bacteria (MRSA and MDR E. coli) was a constant 80 μM and only varied in the concentration of heparin.
The viable count assay was performed to quantify the bactericidal activity of each peptide. Stock solutions of peptides were diluted in 3% TSB media to concentrations ranging from 20 μM to 100 μM immediately before experiments. Heparin-ACA-PA were also prepared by mixing the ACA-PA stock solution with heparin (sodium salt from porcine intestinal mucosa, Sigma, St. Louis, MO) to 1:1, 1:2 and 1:3 weight ratios in water, and a final concentration of ACA-PA in the heparin-ACA-PA at each heparin weight ratio was adjusted to 80 μM for each experiment. The bacteria (10^6 CFU/mL) were incubated with peptides at 37° C. for 4 h. After incubation, serial dilutions of samples were plated on TSB agar and then incubated at 37° C. overnight. The colonies from each spot were manually counted, and the CFU number for each sample was determined. Experiments were conducted in triplicate and results were expressed as the log 10 values of the CFU number in each sample. Data were expressed by stand error of the mean (±S.E.M.) and N=3, *p<0.05 compared with control samples and #p<0.05 compared with bacteria treated with 40 μM of ACA-PA.

## CCCCCCCCCCCCCCCC(=O)N[C@H](C(=O)N[C@H](C(=O)N[C@H](C(=O)N[C@H](C(=O)N[C@@H](CCCCN)C(=O)N[C@@H](CCCCN)C(=O)N[C@@H](CCCCN)C(=O)N[C@@H](CCCCN)C(=O)NCC(=O)N[C@@H](C)C(=O)N[C@@H](CCCCN)C(=O)N[C@@H](CCCCN)C(=O)N[C@@H](C)C(=O)N[C@@H](CCCNC(=N)N)C(=O)N[C@@H](C)C(=O)N[C@@H](C)C(=O)N[C@@H](CCCCN)C(=O)N[C@@H](CCCCN)C(=O)N[C@@H](C)C(=O)N[C@@H](CCCNC(=N)N)C(=O)N[C@@H](C)C(=O)O)C(C)C)C(C)C)C(C)C)C(C)C [ACA-PA, C16-V4K4G(AKKARA)2 (SEQ ID NO: 7)] (Palmitoyl-VVVVKKKKGAKKARAAKKARA-OH; N-terminus and C-terminus assumed)
[1]
  LPS binding factor: highest LPS binding capability among the peptides investigated
MRSA; MRSA (Gram-positive), 60 to 100 μM
  decrease in bacteria density: ~100 fold
MRSA; MRSA, 80 μM ACA-PA, 1:1, 1:2, 1:3 ACA-PA to heparin weight ratios
  number of viable bacteria colonies after mixing with heparin: positively proportional to the amount of heparin added
MRSA; MRSA, 80 μM ACA-PA, 1:3 ACA-PA to heparin weight ratio, 4 h
  toxicity towards bacteria after mixing with heparin: no toxicity towards bacteria
MRSA; MRSA, over 80 μM, 4 h
  decline in bacteria density: 100 fold
  decrease of colony forming units: two
